According to a melting point compilation (Tetko et al.; mined from patent text by program, amines drawn as free bases though some values may be those of a salt):

| Structure (SMILES) | melting point [°C] |
| --- | --- |
| Nc1ccc(C(c2ccc(N)cc2)(c2ccc(I)cc2)C(F)(F)F)cc1 | 171 to 172 |
| CCOC(=O)c1cnc2cc(Cl)ccc2c1N=[N+]=[N-] | 94.5 |
| CCCCCCCCc1ccc(C(O)CC(CO)(CO)NC(C)=O)cc1 (centres undefined) | 118 to 119 |
| NC(=O)c1ccc(C(O)c2c(O)c(=O)ccn2CCO)cc1 (centres undefined) | 215 to 216 |
| Cc1ccc(N(c2ccc(C)cc2)c2c(C)cc(-c3cc(C)c(N(c4ccc(C)cc4)c4ccc5ccc6cccc7ccc4c5c67)c(C)c3)cc2C)cc1 | 198 to 199 |
| c1ccc(N2CCN(CCc3cc4ccccc4[nH]3)CC2)cc1 | 184 to 186 |
| CCCCCC1CCC(c2ccc(C(=O)O)cc2)CC1 (centres undefined) | 30 |
| CCOC(=O)N1CCC(Nc2ccc(F)cc2[N+](=O)[O-])CC1 | 115 to 116 |
| CCCCOc1ccc(S(=O)(=O)N2CCC(OS(C)(=O)=O)C2)cc1 (centres undefined) | 80 to 81 |
| NC(=O)c1ccccc1-n1nnc2cccnc21 | > 340 |
| CCn1cc(-c2nc(C#N)c(N)nc2-c2ccccc2)ccc1=O | 193 to 199 |
| CCn1cc(C(=O)O)c(=O)c2cc(F)c(N3CCC(CN)C3)nc21 (centres undefined) | 217 to 218 |
| CC(C)c1nc(CCCl)n(C)c1Sc1cc(Cl)cc(Cl)c1 | 101 to 102 |
| O=C1CCC2(CCC(=O)N2c2ccc(Cc3ccc(N4C(=O)CCC45CCC(=O)O5)cc3)cc2)O1 (centres undefined) | 135 |
| CC1(C)CC(=C(c2ccc(O)cc2)c2ccc(CCCO)cc2)CC(C)(C)C1 | 160 to 161 |
| OC(Cn1cncn1)(Cn1cnc(Cc2ccc(F)cc2)n1)c1ccccc1C(F)(F)F (centres undefined) | 100 to 103 |
| COc1ccc(C2CNCc3c(C)cccc32)cc1OC (centres undefined) | 86 to 88 |
| CN(C)NC(=O)NC(C(=O)O)c1cccs1 (centres undefined) | 208 to 210 |
| Cc1cn(Cc2ccccc2)c(=O)n(CCCCl)c1=O | 48 to 50 |
| CCCCc1oc2ccccc2c1CCc1ccc(OS(=O)(=O)c2ccc(C(=O)O)c(OC(C)=O)c2)cc1 | 54 to 57 |
| COc1ccc(Nc2nc(NC(C)C)nc(N(C)C3CCNCC3)n2)cc1Cl | 129 |
| CC(C)CC(NC(=O)Cc1cccc2ccccc12)C(=O)NC(Cc1ccccc1)C(=O)CSCc1ccco1 (centres undefined) | 143 to 146 |
| Nc1ccnc(N)c1I | 140 |
| CC1(C)Oc2ccc(C#N)cc2[C@@H](NC(=O)c2cscc2-n2cccc2)[C@@H]1O | 174 to 175 |
| Cn1c(=O)sc2cc(N3C[C@H](C(=O)NCCO)OC3=O)ccc21 | 217 to 219 |
| CC(=O)Nc1ccc(N2CCN(Cc3ccccc3)CC2)cc1 | 159 to 161 |
| COn1c(C)nc2c(NCc3c(C)cccc3C)cc(C(=O)N(C)C)cc21 | 128 to 129 |

Next, values leading:

| melting point [°C] | Structure (SMILES) |
| --- | --- |
| 183 to 185 | O=S(=O)(Nc1ccc2c(OCc3csc(C4COc5ccccc5O4)n3)cccc2c1)C(F)(F)F (centres undefined) |
| 143 to 144 | O=C(NC1=NN(c2cccc(Cl)c2)CC1)C(F)(F)F |
| 95 to 97 | COc1ccc(Cc2nc3cccc(CCCO)c3o2)cc1OC |
| 145 to 147 | COC(=O)C1=C(C)NC(C(C)O)=C(C(=O)OC)C1c1ccccc1Cl (centres undefined) |
| 88 to 91 | CC(C)N(CCOc1cccc2nc(Cl)c3ccccc3c12)C(C)C |
| 179 | CCN1C(C(=O)OC)=C(O)c2ccc3ccccc3c2S1(=O)=O |
| 70 to 71 | Cc1cc(S(=O)(=O)c2ccccc2)ccc1[N+](=O)[O-] |
| 210 to 211 | COc1ccnnc1NS(=O)(=O)c1cccc(Cl)c1Cl |
| 190 to 192 | COc1cc2cccc3c2c(n1)-c1ccccc1C3=O |
| 119 to 121 | COC(=O)c1ccc(I)c2c1Nc1ccccc1C2 |
| 89 to 90 | COCCOc1ccc(CCCNS(C)(=O)=O)c(Oc2ncc(C(F)(F)F)cc2Cl)c1 |
| 97 to 98 | COC(=O)c1cc(C)nn1-c1ncc(Cl)cc1Cl |
